Measured values published in ChEMBL document CHEMBL1126821, “A systematic evaluation of the inhibition of HIV-1 protease by its C- and N-terminal peptides” (Bioorg Med Chem Lett, 1993).
Residues, ends and D or L forms follow the SMILES beside them.

Target: Human immunodeficiency virus type 1 protease (Human immunodeficiency virus 1) (UniProt Q72874)
Test: Inhibitory activity against HIV-1 protease at 100 uM

CC(=O)NCC(=O)N[C@@H](CO)C(=O)N[C@H](C(=O)N[C@@H](CC(C)C)C(=O)N[C@@H](CC(N)=O)C(=O)N[C@@H](Cc1ccccc1)C(=O)O)[C@@H](C)O (Ac-GSTLNF-OH)
inhibition: 4.6%

CC[C@H](C)[C@H](NC(C)=O)C(=O)NCC(=O)N[C@@H](CO)C(=O)N[C@H](C(=O)N[C@@H](CC(C)C)C(=O)N[C@@H](CC(N)=O)C(=O)N[C@@H](Cc1ccccc1)C(=O)O)[C@@H](C)O (Ac-IGSTLNF-OH)
inhibition: 12.6%

CC[C@H](C)[C@H](NC(=O)[C@H](CCC(N)=O)NC(=O)[C@@H]1CCCN1C(C)=O)C(=O)N[C@H](C(=O)N[C@@H](CC(C)C)C(=O)O)[C@@H](C)O (Ac-PQITL-OH)
inhibition: -1.4%

CC[C@H](C)[C@H](NC(=O)[C@H](CCC(N)=O)NC(=O)[C@@H]1CCCN1C(C)=O)C(=O)N[C@H](C(=O)N[C@@H](CC(C)C)C(=O)N[C@@H](Cc1c[nH]c2ccccc12)C(=O)O)[C@@H](C)O (Ac-PQITLW-OH)
inhibition: 28.1%

CC[C@H](C)[C@H](NC(=O)[C@H](CCC(N)=O)NC(=O)[C@@H]1CCCN1C(C)=O)C(=O)N[C@H](C(=O)N[C@@H](CC(C)C)C(=O)N[C@@H](Cc1c[nH]c2ccccc12)C(=O)N[C@@H](CCC(N)=O)C(=O)O)[C@@H](C)O (Ac-PQITLWQ-OH)
inhibition: 26%

CC[C@H](C)[C@H](NC(=O)[C@H](CCC(N)=O)NC(C)=O)C(=O)NCC(=O)N[C@@H](CO)C(=O)N[C@H](C(=O)N[C@@H](CC(C)C)C(=O)N[C@@H](CC(N)=O)C(=O)N[C@@H](Cc1ccccc1)C(=O)O)[C@@H](C)O (Ac-QIGSTLNF-OH)
inhibition: 34.6%

CC(=O)N[C@@H](CO)C(=O)N[C@H](C(=O)N[C@@H](CC(C)C)C(=O)N[C@@H](CC(N)=O)C(=O)N[C@@H](Cc1ccccc1)C(=O)O)[C@@H](C)O (Ac-STLNF-OH)
inhibition: 37.2%

CC(=O)N[C@H](C(=O)N[C@@H](CC(C)C)C(=O)N[C@@H](CC(N)=O)C(=O)N[C@@H](Cc1ccccc1)C(=O)O)[C@@H](C)O (Ac-TLNF-OH)
inhibition: 3.9%

CC[C@H](C)[C@H](NC(=O)[C@H](CCC(N)=O)NC(=O)[C@@H]1CCCN1)C(=O)N[C@H](C(=O)N[C@@H](CC(C)C)C(=O)O)[C@@H](C)O (H-PQITL-OH)
inhibition: 5.6%

CC[C@H](C)[C@H](NC(=O)[C@H](CCC(N)=O)NC(=O)[C@@H]1CCCN1)C(=O)N[C@H](C(=O)N[C@@H](CC(C)C)C(=O)N[C@@H](Cc1c[nH]c2ccccc12)C(=O)O)[C@@H](C)O (H-PQITLW-OH)
inhibition: 39.9%

CC[C@H](C)[C@H](NC(=O)[C@H](CCC(N)=O)NC(=O)[C@@H]1CCCN1)C(=O)N[C@H](C(=O)N[C@@H](CC(C)C)C(=O)N[C@@H](Cc1c[nH]c2ccccc12)C(=O)N[C@@H](CCC(N)=O)C(=O)O)[C@@H](C)O (H-PQITLWQ-OH)
inhibition: 1.3%
